Measurements as given in patent publication US20050222275A1 (priority 2001, published 2005).
Read-outs that look alike come from different tables or passages of the source.

Legend:
[1] = system: CJD patients; conditions: human, in vivo
[2] = system: scrapie-infected neuroblastoma cells (ScN2a); conditions: cited from earlier work
[3] = system: PrP^Sc; conditions: human, in vivo
[4] = system: Scrapie (IP) infected Hamsters; conditions: for Incubation period: IP scrapie-infected hamsters, 7.5% (w/v) DMSO in drinking water
[5] = system: Scrapie (IC) infected Hamsters; type: in vivo, Syrian hamsters; conditions: for Incubation period: IC scrapie-infected hamsters, 7.5% (w/v) DMSO in drinking water, median; for Percentage of infectivity (%): relative to control
[6] = system: caseic amyloidosis; conditions: mouse, in vivo, po; cited from earlier work
[7] = system: amyloid fibrils; conditions: cited from earlier work
[8] = molecular target: T1, Aβ peptide (Homo sapiens, UniProt P05067); conditions: cited from earlier work
T1 construct: Aβ peptide intermediate with a high β-sheet content

[9] = molecular target: PrP^Sc (Mesocricetus auratus, UniProt P04273); type: in vivo, hamster; conditions: IC-inoculated, DMSO 14-end group, brain homogenate
[10] = system: amyloidotic diseases; conditions: human, in vivo; cited from earlier work
[11] = in vivo; cited from earlier work
[12] = in vivo, po; cited from earlier work

PrP^Sc (Mesocricetus auratus, UniProt P04273), sequence (P04273 23-231 limits assumed): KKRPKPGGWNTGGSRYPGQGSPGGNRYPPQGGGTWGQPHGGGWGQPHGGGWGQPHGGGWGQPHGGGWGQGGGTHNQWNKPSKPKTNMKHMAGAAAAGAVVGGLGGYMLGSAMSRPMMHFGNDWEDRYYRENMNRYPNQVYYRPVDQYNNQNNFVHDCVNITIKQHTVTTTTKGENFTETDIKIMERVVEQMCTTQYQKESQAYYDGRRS
T1 sequence (P05067 672-711 limits assumed): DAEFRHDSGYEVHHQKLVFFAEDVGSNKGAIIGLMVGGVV

## C[S+](C)[O-] [DMSO, dimethyl sulfoxide]
[1]
  cerebellar syndrome during the treatment: progressed
  cognitive decline during the treatment: no further cognitive decline
  deterioration, medical evaluation: slower than expected
  titubation and tremor, medical evaluation: improvement
[2]
  formation of PrP^Sc from newly synthesized PrP^C: interfered with the formation of PrP^Sc
[3]
  secreted PrP^Sc in the urine: continuously increasing amounts
[4]; 0 - end dpi
  Incubation period: 127.6 days
[4]; 28 - end dpi
  Incubation period: 126.6 days
[4]; 55 - end dpi
  Incubation period: 136.8 days
[4]; IP, DMSO treatment 0 - end dpi
  Variance from control group [P < 0.05]: + ([+] means statistically significant difference [p < 0.05])
[4]; IP, DMSO treatment 28 - end dpi
  Variance from control group [P < 0.05]: + ([+] means statistically significant difference [p < 0.05])
[4]; IP, DMSO treatment 55 - end dpi
  Variance from control group [P < 0.05]: + ([+] means statistically significant difference [p < 0.05])
[4]; IP, all treatment plans of Table 2
  overall effect for the animals treated with DMSO: overall beneficial effect
[4]; IP, groups 0-end and 28-end
  beneficial effect on longevity: marginal
[4]; IP, treated only from 55 dpi onwards
  longevity: most remarkable longevity
[4]; hamsters, DMSO in drinking water
  adverse DMSO effects: weight loss
[5]; 0-14 dpi
  Incubation period: 85 days
[5]; 0-end dpi
  Incubation period: 101 days
[5]; 14-end dpi
  Incubation period: 107 days
[5]; 55-end dpi
  Incubation period: 91 days
[5]; IC, 0-14 group
  effect on incubation time compared with control group: significant deleterious effect
[5]; IC, DMSO treatment 0-14 dpi
  Infectivity (Log I.D 50): 7.1 Log I.D 50
  Variance from control group [P < 0.05]: + ([+] means statistically significant difference [p < 0.05])
  Percentage of infectivity (%): 1258%
[5]; IC, DMSO treatment 0-end dpi
  Infectivity (Log I.D 50): 4.9 Log I.D 50
  Variance from control group [P < 0.05]: + ([+] means statistically significant difference [p < 0.05])
  Percentage of infectivity (%): 3.16%
[5]; IC, DMSO treatment 14-end dpi
  Infectivity (Log I.D 50): 4.5 Log I.D 50
  Variance from control group [P < 0.05]: + ([+] means statistically significant difference [p < 0.05])
  Percentage of infectivity (%): 3.16%
[5]; IC, DMSO treatment 55-end dpi
  Infectivity (Log I.D 50): 6.4 Log I.D 50
[5]; IC, DMSO-treated from 55 dpi-end
  difference from control group in incubation time: no statistically significant difference
[5]; IC, treatment plans 0-end or 14-end
  incubation time for the disease compared with control group: statistically significant increase
[6]
  development of the disease: prevented the development of the disease
[7]
  assembly of amyloid fibrils: blocks the assembly of amyloid fibrils
  disassembly of preexisting fibrils: does not interfere
[8]
  formation of Aβ peptide intermediate with a high β-sheet content: block the formation
[9]; 90 dpi
  PrP^Sc in sample from untreated animal relative to DMSO-treated animal (band intensity): about 10 times
[9]
  PrP in DMSO-treated animals at 90-110 dpi compared with untreated animals at 60 dpi: equivalent
  PrP^Sc in DMSO-treated animals at 110 dpi compared with untreated animals at 90 dpi (final stages): equivalent amounts
[10]
  patients showing clinical improvement: about 50%
  urine of patients after DMSO: contains material that can form fibrils
[11]
  side effects: no serious side effects
[12]
  time to peak concentration: 4 h
